Measurements published in patent publication US20150307539A1, “USE OF SULPHATED G[…] PROMOTERS OF NEURITIC GROWTH, M[…] INHIBITING THE PROLIFERATION OF ASTROGLIA AND MICROGLIA” (CONSEJO SUPERIOR DE INVESTIGACIONES CIENTIFICAS (CSIC), priority 2012, published 2015).

Experiments:
[1] = test system: Astrocytes (primary astroblasts from cerebral cortices of postnatal rats); experiment: Inhibition of astroglial cell proliferation, primary astroblasts; format: cell-based, rat; details: for IC50: Astrocytes, astroglia, rat, IC50 ± SE
Description: (§1) To study the microglial and astroglial cell proliferation two cell lines of murine microglia were used (BV-2, N13), as well as primary astroblasts isolated from cerebral cortices of postnatal rats on day zero (P0). The cells were kept in DMEM plus 10% SBF, grown and treated for testing the inhibition of cell proliferation, as published earlier by the applicants (I. Garcia-Alvarez et al., J Med Chem 50, 364 (Jan. 25, 2007)). […] It was concluded that the inhibitory activity of IG20-NBD is not affected by the presence of the fluorescent group, as its IC50 is very similar to that obtained for the uncombined glycoside IG-20, which was used as a control in these tests.

[2] = test system: N13 microglia; experiment: Inhibition of microglial cell proliferation, N13; format: cell-based, mouse; details: for IC50: N13, microglia, mouse, IC50 ± SE
Description: as §1

[3] = target: T1, RhoGDIα protein (Rattus norvegicus, UniProt Q5XI73); experiment: Co-immunoprecipitation with anti-RhoGDIα antibody (Western blot and MS), primary astrocytes; format: binding; details: primary astrocytes treated with 30 μM, cytosol fraction
T1 construct: This was verified by RhoGDIα immunoprecipitation in the microglial cell line BV-2, and also in primary astrocyte cultures; endogenous in cells; host or cells: primary astrocyte cultures
T1 sequence (Q5XI73 1-204): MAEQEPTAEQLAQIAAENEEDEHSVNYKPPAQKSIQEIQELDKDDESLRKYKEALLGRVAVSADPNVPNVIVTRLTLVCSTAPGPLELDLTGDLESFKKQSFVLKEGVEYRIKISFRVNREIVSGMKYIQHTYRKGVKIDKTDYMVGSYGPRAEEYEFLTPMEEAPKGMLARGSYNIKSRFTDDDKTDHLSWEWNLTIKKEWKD
Method: (§2) Primary astrocyte and microglia cells (BV-2) were treated with the glycoside IG-20 at 30 μM, lysed and subjected to cell fractionation by differential centrifugation. The soluble fraction was collected and mixed with lysis buffer (1:1). Anti-RhoGDIα antibody (15 μg) was added and it was incubated with rotation at 4° C. overnight. It was immunoprecipitated with Protein A-Sepharose (20 μl) having been previously washed with PBS and centrifuged for 3 minutes at 1100 rpm. The previous mixture was added to the Protein A-Sepharose (1:1). This mixture was incubated with rotation at 4° C. for an hour and a half, and afterwards centrifuged for 5 minutes at 2500 rpm at 4° C. After discarding the supernatant, the precipitate was washed three times with lysis buffer. The immunocomplex of the Protein A-Sepharose was eluted with five volumes of the elution buffer (0.1 M glycine, pH=2.9) and a neutralising volume of 1M tris-HCl, pH=9. The mixture was centrifuged for five minutes at 2500 rpm at 4° C. and the supernatant was collected. […]
(§3) This was verified by RhoGDIα immunoprecipitation in the microglial cell line BV-2, and also in primary astrocyte cultures. […] This was detected by MS as a peak in the mass to charge ratio of 550 (FIG. 4c, 4d), which corresponds to the synthetic glycoside. […]

[4] = test system: neurons of spinal ganglia (SG) of rat embryos (E15); experiment: Neuritic outgrowth of spinal ganglia neurons co-cultured on aldynoglia; format: cell-based
Method: Spinal ganglia (SG) of rat embryos (E15) were dissected and incubated for 12 hours on axon growth-promoting cells (aldynoglia) to allow cellular adhesion of the neurons contained in the SG to the aldynoglia substrate. Next, different concentrations of IG-20, compound 3 produced as described in the synthesis examples, were added. […] The presence of total cells is shown by the fluorescent signal of the Hoechst-marked nuclei (FIG. 1a, 1b, 1c). The nuclei remote from the central body are aldynoglia cells or those that migrate from the SG. The neurofilament images were extracted (FIG. 1g, 1h, 1i) and measured, and the neuritic growth area was compared to the controls (FIG. 1j, 1k). […] A net increase in the neuritic growth area of 1250 μm^2 more than the control with aldynoglia cells (FIG. 1k) was produced. The average speed of neuritic outgrowth in the presence of aldynoglia, 625 μm/72 h corresponding to […], was duplicated in the presence of IG-20 (5 μM) up to 1250 μm/72 h, which corresponds to 17.36 μm/h. Calibration bars at 500 μm; (*) correspond to P<0.05 (P=0.019).

[5] = target: T2, RhoGDIα protein (Mus musculus, UniProt Q99PT1); experiment: Co-immunoprecipitation with anti-RhoGDIα antibody (Western blot and MS), BV-2 microglia; format: binding; details: BV-2 microglia treated with 30 μM, cytosol fraction
T2 construct: This was verified by RhoGDIα immunoprecipitation in the microglial cell line BV-2; endogenous in cells; host or cells: BV-2 microglial cell line
T2 sequence (Q99PT1 1-204): T1 sequence (Q5XI73 1-204)
Method: as §2, §3

[6] = test system: oligodendrocytes and astroglia from cerebral cortices of postnatal rats P0-P1; experiment: Oligodendrocyte growth, myelin (MBP) expression and astroglia (GFAP) inhibition in cortical glial culture; format: cell-based, rat; details: 30 μM, two weeks culture
Method: To study how the compound having formula I affects the growth of oligodendrocytes, the expression of myelin and the inhibition of astroglia, cerebral cortices of postnatal rats P0-P1 were dissected and enzymatically dissociated for cell culture. After two weeks incubation the culture flasks were stirred for 12 hours. The cells in suspension were harvested, the microglia were removed, and then cultured in DMEM plus SBF 10%. It was incubated for 6 hours to facilitate cell adhesion and the IG-20 (30 μM) was added to the treated group. The cells were cultured for two weeks and the medium was replaced every three days.
In both cases the differences were very significant. It was notable that the astroglial cells were large compared with the oligodendrocytes, which could scarcely be detected in the untreated controls (arrow in 2a, b). […] GFAP, glial fibrillary acidic protein; MBP, myelin basic protein; calibration bars at 75 μm (a, c) and 25 μm (b), as shown; (***) corresponds to P<0.001.

[7] = test system: BV-2 microglia; experiment: Inhibition of microglial cell proliferation, BV-2; format: cell-based; details: mouse, IC50 ± SE
Description: as §1

| SMILES | activity in astrocytes compared with IG-20 ([1]; 30 μM compared with 9.3 μM) | IC50 [1] | IC50 [2] | microglial inhibition compared with IG-20 ([2]; microglia) | IC50 ([1]; Astrocyte) | interaction with RhoGDIα (co-immunoprecipitation) [3] | net increase in the neuritic growth area more than the control with aldynoglia cells ([4]; 5 μM, 3 days incubation) | neuritic outgrowth compared with control aldynoglia ([4]; 5 μM, 3 days incubation, SG/aldynoglia co-culture) | average speed of neuritic outgrowth ([4]; 5 μM, control aldynoglia 8.3 μm/h) | average speed of neuritic outgrowth ([4]; 5 μM, control aldynoglia 625 μm/72 h) | neuritic outgrowth at five-fold increased concentration ([4]; five-fold increase of 5 μM, 3 days incubation) | interaction with RhoGDIα (co-immunoprecipitation) [5] | GFAP marking compared with untreated control [6] | MBP signal compared with untreated control [6] | increase of mature oligodendroglia, MBP+ [6] | oligodendrocyte size relative to controls [6] | reduction of the proportion of GFAP+ cells (astroglia) [6] | IC50 [7] |
| --- | --- | --- | --- | --- | --- | --- | --- | --- | --- | --- | --- | --- | --- | --- | --- | --- | --- | --- |
| CCCCCCCC/C=C\CCCCCCCCO[C@H]1O[C@H](COS(=O)(=O)[O-])[C@@H](O)[C@H](OS(=O)(=O)[O-])[C@H]1NC(=O)C(F)(F)F.[K+].[K+] [Disulphated IG-20, potash from oleyl N-trifluoroacetyl-3,6-O-di-(oxo-sulphonyl)-α-D-glucosaminide] | reduced its activity by three | 30 µM | 3 ± 0.8 µM | microglial inhibition was not affected |  |  |  |  |  |  |  |  |  |  |  |  |  |  |
| CCCCCCCC/C=C\CCCCCCCCO[C@H]1O[C@H](COS(=O)(=O)O)[C@@H](O)[C@H](O)[C@H]1NC(=O)CCCCCNc1ccc([N+](=O)[O-])c2nonc12 [IG20-NBD, potash from oleyl 2-[6-(7-nitrobenzofurazan)-aminohexanamide]-6-O-(oxo-sulphonyl)-α-D-glucosaminide] |  |  | 7.8 µM |  | 11.4 µM |  |  |  |  |  |  |  |  |  |  |  |  |  |
| CCCCCCCC/C=C\CCCCCCCCO[C@H]1O[C@H](COS(=O)(=O)[O-])[C@@H](O)[C@H](O)C1NC(C)=O.[K+] (stereo partly drawn) [IG-20, potash from oleyl N-acetyl-6-O-(oxo-sulphonyl)-α-D-glucosaminide] |  |  | 3.4 µM |  | 9.3 µM | interacts directly with the RhoGDIα protein | 1250 μm^2 | profuse and significant increase in neuritic outgrowth | 17.36 μm/h | 1250 μm/72 h | reduced this neuritic outgrowth | interacts directly with the RhoGDIα protein | dramatic reduction in GFAP marking | increase in the MBP signal | 10% | 3-4 times larger than the controls | 20% | 21 µM |
